Test results published in patent publication US9980943B2, “Methods of treating muscular dystrophy” (BOARD OF REGENTS OF THE NEVADA SYSTEM OF HIGHER EDUCATION, …, priority 2013, dated 2018).

How the values were obtained:
Type in all cases: cell-based, mouse
[1] = system: α7 integrin (LacZ reporter in α7βgal+/− myoblasts); assay: Myoblast α7+/LacZ integrin FDG assay (Burkin assay in myoblasts, 96-well); settings: α7+/LacZ myoblasts, 96-well
[2] = system: α7 integrin (LacZ reporter in α7+/LacZ myotubes); assay: Myotube α7 integrin FDG assay (Burkin assay in myotubes, 96-well); settings: myotubes
[3] = system: β-galactosidase in CMV-LacZ C2C12 myoblasts; assay: CMV-LacZ secondary screen in C2C12 myoblasts (β-Gal stabilizing assay); settings: CMV-LacZ C2C12 myoblasts
In short: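 Stable CMV-LacZ C2C12 clone; six-point curve 0.5–40 μM; duplicates.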

[4] = system: β-galactosidase in CMV-LacZ C2C12 myotubes; assay: CMV-LacZ secondary screen in C2C12 myotubes (β-Gal stabilizing assay); settings: C2C12 CMV-LacZ myotubes, fold relative to DMSO
In short: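 A secondary screen identifies compounds that stabilize β-gal independently of the native promoter, using CMV-LacZ C2C12 cells. Curves span 0.5–40 μM at six levels, in duplicate.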

Structure (SMILES) | Burkin Assay in Myoblasts, signal relative to DMSO ([1]; 0.5 uM) | Burkin Assay in Myoblasts, signal relative to DMSO ([1]; 1 uM) | Burkin Assay in Myoblasts, signal relative to DMSO ([1]; 5 uM) | Burkin Assay in Myoblasts, signal relative to DMSO ([1]; 10 uM) | Burkin Assay in Myoblasts, signal relative to DMSO ([1]; 20 uM) | Burkin Assay in Myoblasts, signal relative to DMSO ([1]; 40 uM) | Burkin Assay in Myotubes, α7 integrin LacZ reporter signal relative to DMSO ([2]; 0.5 uM) | Burkin Assay in Myotubes, α7 integrin LacZ reporter signal relative to DMSO ([2]; 1 uM) | Burkin Assay in Myotubes, α7 integrin LacZ reporter signal relative to DMSO ([2]; 5 uM) | Burkin Assay in Myotubes, α7 integrin LacZ reporter signal relative to DMSO ([2]; 10 uM) | Burkin Assay in Myotubes, α7 integrin LacZ reporter signal relative to DMSO ([2]; 20 uM) | Burkin Assay in Myotubes, α7 integrin LacZ reporter signal relative to DMSO ([2]; 40 uM) | CMV-LACZ in Myoblasts (β-galactosidase activity relative to DMSO) ([3]; 0.5 uM) | CMV-LACZ in Myoblasts (β-galactosidase activity relative to DMSO) ([3]; 1 uM) | CMV-LACZ in Myoblasts (β-galactosidase activity relative to DMSO) ([3]; 5 uM) | CMV-LACZ in Myoblasts (β-galactosidase activity relative to DMSO) ([3]; 10 uM) | CMV-LACZ in Myoblasts (β-galactosidase activity relative to DMSO) ([3]; 20 uM) | CMV-LACZ in Myoblasts (β-galactosidase activity relative to DMSO) ([3]; 40 uM) | CMV-LACZ in Myotubes, signal relative to DMSO ([4]; 0.5 uM) | CMV-LACZ in Myotubes, signal relative to DMSO ([4]; 1 uM) | other results
CCOn1c(=O)c(-c2ccccc2)[n+]([O-])c2ccccc21 [MLS001197220-01] | 1.2811 | 1.286 | 1.843 | 0.9218 | 1.111 | 1.0836 | 1.327 | 1.3061 | 1.254 | 1.004 | 0.9 | 0.831 | 1.2028 | 1.1569 | 0.9355 | 1.1383 | 0.9567 | 1.2844 | 0.8896 | 0.9356 | CMV-LACZ in Myotubes, signal relative to DMSO ([4]; 5 uM): 0.9682; CMV-LACZ in Myotubes, signal relative to DMSO ([4]; 10 uM): 0.9289; CMV-LACZ in Myotubes, signal relative to DMSO ([4]; 20 uM): 0.9659; CMV-LACZ in Myotubes, signal relative to DMSO ([4]; 40 uM): 1.0271
Cc1ccccc1NC(=O)NCCCN1CCN(C)CC1 [MLS001197665-01] | 1.062 | 1.069 | 1.015 | 0.9523 | 1.094 | 1.189 | 1.115 | 1.068 | 0.973 | 0.999 | 1.001 | 0.9583 | 0.8584 | 0.8347 | 0.9214 | 0.8403 | 0.9556 | 1.0267 | 0.9415 | 0.8756 | CMV-LACZ in Myotubes, signal relative to DMSO ([4]; 5 uM): 0.9771; CMV-LACZ in Myotubes, signal relative to DMSO ([4]; 10 uM): 1.2593; CMV-LACZ in Myotubes, signal relative to DMSO ([4]; 20 uM): 1.0047; CMV-LACZ in Myotubes, signal relative to DMSO ([4]; 40 uM): 1.0741
CC(=O)C1=C(C)Nc2ncnn2C1c1ccc(C)cc1 (stereo not drawn) [MLS001197779-01] | 0.9161 | 1.0032 | 1.281 | 0.9869 | 0.8467 | 0.753 | 1.038 | 0.961 | 1.102 | 0.9249 | 0.8237 | 0.913 | 0.8987 | 1.2563 | 0.7604 | 0.6490 | 0.9846 | 1.1267 | 1.1286 | 1.1705 | CMV-LACZ in Myotubes, signal relative to DMSO ([4]; 5 uM): 1.0456; CMV-LACZ in Myotubes, signal relative to DMSO ([4]; 10 uM): 1.0983; CMV-LACZ in Myotubes, signal relative to DMSO ([4]; 20 uM): 1.0630; CMV-LACZ in Myotubes, signal relative to DMSO ([4]; 40 uM): 1.0540
